In assay [1] the test system is prostate line LNCap. Put plainly: In vitro cell culture growth assay (MTS), LNCap. In kind it is cell-based. The conditions noted are these: Homo sapiens, LNCaP, 72 h, LNCap cells, three days after drug treatment. An outline of the steps: (§1)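 Inhibitors were added one day after plating, and viable cells were measured 3 days later by MTS conversion (absorbance 490 nm).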

Assay [2] concerns the target T1, Human mTOR (FLAG-TOR) (Homo sapiens, UniProt P42345).
T1 construct: FLAG
As to the kind of experiment: Human mTOR kinase assay with purified enzyme, DELFIA format. The class given is biochemical. In short, it runs like this:
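Purified FLAG-mTOR in HEPES pH 7.4 buffer with 10 mM MnCl2 was preincubated with inhibitor and reacted 2 h at room temperature with His6-S6K substrate, then stopped with EDTA/EGTA. Phospho-T389 S6K detected by DELFIA with Eu-labelled antibody (40 ng/mL) after plate capture; inhibition computed from signal.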

For assay [3], the system named is breast line MDA468. Put plainly: In vitro cell culture growth assay (MTS), MDA468. The class given is cell-based. The conditions noted are these: Homo sapiens, 72 h, MDA468 cells, three days after drug treatment. In short, it runs like this:
as §1

In assay [4] the target is T2, PI3K (Homo sapiens, UniProt P48736).
T2 construct: PI3 Kinase γ IC50; other: PI3 Kinase γ; other: PI3 Kinase γ isoform, fluorescence polarization
T2 sequence (P48736 whole entry, canonical isoform): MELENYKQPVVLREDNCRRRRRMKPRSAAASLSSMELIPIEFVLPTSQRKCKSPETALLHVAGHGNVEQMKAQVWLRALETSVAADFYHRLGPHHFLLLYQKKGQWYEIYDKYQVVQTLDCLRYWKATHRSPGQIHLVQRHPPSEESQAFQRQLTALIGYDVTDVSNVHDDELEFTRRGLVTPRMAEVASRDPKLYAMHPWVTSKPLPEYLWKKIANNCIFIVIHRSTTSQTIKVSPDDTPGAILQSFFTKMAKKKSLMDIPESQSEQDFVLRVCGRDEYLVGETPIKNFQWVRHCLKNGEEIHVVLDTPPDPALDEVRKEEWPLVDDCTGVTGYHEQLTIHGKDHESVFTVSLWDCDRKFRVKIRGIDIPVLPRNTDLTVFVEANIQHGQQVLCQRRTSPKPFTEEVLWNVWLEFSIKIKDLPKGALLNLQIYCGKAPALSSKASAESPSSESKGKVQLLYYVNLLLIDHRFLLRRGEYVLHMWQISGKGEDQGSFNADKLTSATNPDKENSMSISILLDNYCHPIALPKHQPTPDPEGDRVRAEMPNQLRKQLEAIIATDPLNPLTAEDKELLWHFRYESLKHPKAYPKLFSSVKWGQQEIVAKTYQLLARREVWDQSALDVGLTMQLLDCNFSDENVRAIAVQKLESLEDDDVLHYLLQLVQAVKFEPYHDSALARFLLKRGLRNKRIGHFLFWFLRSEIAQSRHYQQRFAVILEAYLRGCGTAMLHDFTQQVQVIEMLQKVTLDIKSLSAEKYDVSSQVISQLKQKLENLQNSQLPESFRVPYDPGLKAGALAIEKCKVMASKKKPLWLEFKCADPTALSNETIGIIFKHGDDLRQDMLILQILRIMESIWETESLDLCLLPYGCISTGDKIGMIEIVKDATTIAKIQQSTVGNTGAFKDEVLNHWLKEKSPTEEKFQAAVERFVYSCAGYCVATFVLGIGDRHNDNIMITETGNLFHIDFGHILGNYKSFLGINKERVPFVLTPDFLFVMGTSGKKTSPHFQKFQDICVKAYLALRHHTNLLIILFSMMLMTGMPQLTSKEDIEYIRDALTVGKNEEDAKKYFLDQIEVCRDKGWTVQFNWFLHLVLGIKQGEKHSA
Put plainly: Fluorescence polarization assay for PI3K. In kind it is biochemical. The conditions noted are these: PI3 Kinase γ; read-out: PI3 Kinase γ IC50. In short, it runs like this: (§2)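 PI3K was preincubated with compound (final DMSO 1%), and the reaction was started with PIP2/ATP substrate and run 30–60 min. It was stopped with a detector mix giving 10 nM red probe and 70 nM GST-GRP.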

Assay [5] has as its target T3, PI3K (Homo sapiens, UniProt P42336).
T3 construct: PI3 Kinase α IC50; other: PI3 Kinase α; other: PI3 Kinase α isoform, fluorescence polarization
As to the kind of experiment: Fluorescence polarization assay for PI3K. The class given is biochemical. The conditions noted are these: PI3 Kinase α; read-out: PI3 Kinase α IC50. An outline of the steps:
as §2
In general terms: Fluorescence polarisation rises when a labelled molecule tumbles more slowly, as on binding a larger partner.

T3 sequence (P42336 whole entry, canonical isoform): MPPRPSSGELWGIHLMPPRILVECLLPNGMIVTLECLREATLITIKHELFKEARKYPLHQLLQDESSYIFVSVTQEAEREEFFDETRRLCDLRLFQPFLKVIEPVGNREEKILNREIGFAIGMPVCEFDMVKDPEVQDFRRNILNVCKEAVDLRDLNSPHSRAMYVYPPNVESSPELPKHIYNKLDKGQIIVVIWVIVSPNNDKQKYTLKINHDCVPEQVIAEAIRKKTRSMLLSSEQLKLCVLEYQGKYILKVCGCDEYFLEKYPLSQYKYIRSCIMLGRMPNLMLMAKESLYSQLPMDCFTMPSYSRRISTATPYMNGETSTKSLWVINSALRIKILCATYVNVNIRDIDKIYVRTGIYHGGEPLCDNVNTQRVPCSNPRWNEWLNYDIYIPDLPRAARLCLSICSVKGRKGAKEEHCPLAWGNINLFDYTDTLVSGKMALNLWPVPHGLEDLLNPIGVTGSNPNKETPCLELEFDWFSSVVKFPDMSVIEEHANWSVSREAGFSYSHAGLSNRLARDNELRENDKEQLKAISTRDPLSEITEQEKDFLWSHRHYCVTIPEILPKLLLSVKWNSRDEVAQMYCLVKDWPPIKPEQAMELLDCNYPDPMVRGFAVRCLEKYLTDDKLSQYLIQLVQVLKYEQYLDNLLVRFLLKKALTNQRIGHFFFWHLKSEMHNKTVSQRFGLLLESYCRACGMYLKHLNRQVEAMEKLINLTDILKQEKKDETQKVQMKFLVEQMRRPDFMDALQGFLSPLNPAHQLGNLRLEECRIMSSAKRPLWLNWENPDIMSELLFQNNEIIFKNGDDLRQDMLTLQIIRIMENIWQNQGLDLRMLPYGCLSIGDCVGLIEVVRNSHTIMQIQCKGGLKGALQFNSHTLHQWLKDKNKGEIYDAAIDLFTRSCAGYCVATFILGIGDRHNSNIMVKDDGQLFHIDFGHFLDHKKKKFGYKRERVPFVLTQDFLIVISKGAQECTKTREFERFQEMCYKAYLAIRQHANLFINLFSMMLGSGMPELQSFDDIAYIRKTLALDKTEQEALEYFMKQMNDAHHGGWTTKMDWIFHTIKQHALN

As for `O=C(Nc1ccc(-c2nc(N3CC4CCC(C3)O4)c3cnn(CCO)c3n2)cc1)Nc1ccc(N2CCOCC2)cc1` [Example 204, 1-{4-[1-(2-hydroxyethyl)-4-(8-oxa-3-azabicyclo[3.2.1]oct-3-yl)-1H-pyrazolo[3,4-d]pyrimidin-6-yl]phenyl}-3-(4-morpholin-4-ylphenyl)urea], the IC50 (usually the concentration that gives 50% inhibition) in assay [1] turned out to be 6 nM; in assay [2] it was 0.49 nM; in assay [3] it was 35 nM; in assay [4], 11300 nM; in assay [5] it was 274 nM.

Take `CN1CCN(c2ccc(NC(=O)Nc3ccc(-c4nc(N5CC6CCC(C5)O6)c5cnn(CCO)c5n4)cc3)cn2)CC1` [Example 205, 1-{4-[1-(2-hydroxyethyl)-4-(8-oxa-3-azabicyclo[3.2.1]oct-3-yl)-1H-pyrazolo[3,4-d]pyrimidin-6-yl]phenyl}-3-[6-(4-methylpiperazin-1-yl)pyridin-3-yl]urea]: the IC50 is 90 nM in assay [1]; 1.7 nM in assay [2]; 80 nM in assay [3]; 3570 nM in assay [4]; 202 nM in assay [5].

For `O=C(Nc1ccc(-c2nc(N3CC4CCC(C3)O4)c3cnn(CCO)c3n2)cc1)Nc1ccc(N2CCOCC2)nc1` [Example 206, 1-{4-[1-(2-hydroxyethyl)-4-(8-oxa-3-azabicyclo[3.2.1]oct-3-yl)-1H-pyrazolo[3,4-d]pyrimidin-6-yl]phenyl}-3-(6-morpholin-4-ylpyridin-3-yl)urea], the IC50 in assay [1] is 190 nM; in assay [2], 0.7 nM; in assay [3], 120 nM; in assay [4], 11800 nM; in assay [5] it was 469 nM.

`Nc1ccc(-c2nc(N3CC4CCC(C3)O4)c3cnn(CCO)c3n2)cc1` [Example 207, 2-[6-(4-aminophenyl)-4-(8-oxa-3-azabicyclo[3.2.1]oct-3-yl)-1H-pyrazolo[3,4-d]pyrimidin-1-yl]ethanol]: the IC50 in assay [1] is 14000 nM; in assay [2], 145 nM; in assay [3], 38000 nM; in assay [4], above 10000 nM; in assay [5], 3590 nM.

As for `CCOC(=O)Nc1ccc(-c2nc(N3CC4CCC(C3)O4)c3cnn(CCO)c3n2)cc1` [Example 208, ethyl {4-[1-(2-hydroxyethyl)-4-(8-oxa-3-azabicyclo[3.2.1]oct-3-yl)-1H-pyrazolo[3,4-d]pyrimidin-6-yl]phenyl}carbamate], the half-inhibitory concentration (IC50) is 220 nM in assay [1]; 8.2 nM in assay [2]; 900 nM in assay [3]; above 10000 nM in assay [4]; 1860 nM in assay [5].

Take `O=C(Nc1ccc(-c2nc(N3CC4CCC(C3)O4)c3cnn(C4CCN(CC(F)(F)F)CC4)c3n2)cc1)OCCO` [Example 209, 2-hydroxyethyl (4-{4-(8-oxa-3-azabicyclo[3.2.1]oct-3-yl)-1-[1-(2,2,2-trifluoroethyl)piperidin-4-yl]-1H-pyrazolo[3,4-d]pyrimidin-6-yl}phenyl)carbamate]: the IC50 in assay [1] was found to be 40 nM; in assay [2] it was 2.25 nM; in assay [3], 600 nM; in assay [4], 4950 nM; in assay [5], 3710 nM.

As for `O=C(Nc1ccc(-c2nc(N3CC4CCC(C3)O4)c3cnn(C4CCN(Cc5cccnc5)CC4)c3n2)cc1)OCCO` [Example 210, 2-hydroxyethyl (4-{4-(8-oxa-3-azabicyclo[3.2.1]oct-3-yl)-1-[1-(pyridin-3-ylmethyl)piperidin-4-yl]-1H-pyrazolo[3,4-d]pyrimidin-6-yl}phenyl)carbamate], the IC50 in assay [1] was 4 nM; in assay [2], 0.93 nM; in assay [3] it was 110 nM; in assay [4], above 10000 nM; in assay [5], 1750 nM.

As for `O=C1CCC(n2ncc3c(N4CC5CCC(C4)O5)nc(-c4ccc(NC(=O)OCCO)cc4)nc32)CC1` [Example 211, 2-hydroxyethyl {4-[4-(8-oxa-3-azabicyclo[3.2.1]oct-3-yl)-1-(4-oxocyclohexyl)-1H-pyrazolo[3,4-d]pyrimidin-6-yl]phenyl}carbamate], the IC50 in assay [1] is 17 nM; in assay [2] it was 0.885 nM; in assay [3], 120 nM; in assay [4], above 10000 nM; in assay [5], 2120 nM.

As to `O=C(Nc1ccc(-c2nc(N3CC4CCC(C3)O4)c3cnn(C4CCC(O)CC4)c3n2)cc1)OCCO` (stereo not drawn) [Example 212, 2-hydroxyethyl {4-[1-(4-hydroxycyclohexyl)-4-(8-oxa-3-azabicyclo[3.2.1]oct-3-yl)-1H-pyrazolo[3,4-d]pyrimidin-6-yl]phenyl}carbamate], the IC50 is 42 nM in assay [1]; 0.565 nM in assay [2]; 190 nM in assay [3]; above 10000 nM in assay [4]; 3960 nM in assay [5].

Take `N#CCCn1ncc2c(N3CC4CCC(C3)O4)nc(-c3ccc(NC(=O)OCCO)cc3)nc21` [Example 213, 2-hydroxyethyl {4-[1-(2-cyanoethyl)-4-(8-oxa-3-azabicyclo[3.2.1]oct-3-yl)-1H-pyrazolo[3,4-d]pyrimidin-6-yl]phenyl}carbamate]: the IC50 in assay [1] was 150 nM; in assay [2], 1.25 nM; in assay [3], 1000 nM; in assay [4], above 10000 nM; in assay [5], 4530 nM.

Turning to `CNC(=O)Nc1ccc(-c2nc(N3CC4CCC(C3)O4)c3cnn(CCC#N)c3n2)cc1` [Example 214, 1-{4-[1-(2-cyanoethyl)-4-(8-oxa-3-azabicyclo[3.2.1]oct-3-yl)-1H-pyrazolo[3,4-d]pyrimidin-6-yl]phenyl}-3-methylurea], the IC50 in assay [1] is 210 nM; in assay [2], 1.5 nM; in assay [3] it was 570 nM; in assay [4] it was above 10000 nM; in assay [5], 726 nM.

With `N#CCCn1ncc2c(N3CC4CCC(C3)O4)nc(-c3ccc(NC(=O)NC4CC4)cc3)nc21` [Example 215, 1-{4-[1-(2-cyanoethyl)-4-(8-oxa-3-azabicyclo[3.2.1]oct-3-yl)-1H-pyrazolo[3,4-d]pyrimidin-6-yl]phenyl}-3-cyclopropylurea], the IC50 in assay [1] is 78 nM; in assay [2], 1.35 nM; in assay [3], 800 nM; in assay [4] it was above 10000 nM; in assay [5], 3600 nM.

As for `N#CCCn1ncc2c(N3CC4CCC(C3)O4)nc(-c3ccc(NC(=O)Nc4cccnc4)cc3)nc21` [Example 216, 1-{4-[1-(2-cyanoethyl)-4-(8-oxa-3-azabicyclo[3.2.1]oct-3-yl)-1H-pyrazolo[3,4-d]pyrimidin-6-yl]phenyl}-3-pyridin-3-ylurea], the IC50 in assay [1] came out at 4 nM; in assay [2] it was 0.255 nM; in assay [3], 55 nM; in assay [4], 3320 nM; in assay [5], 124 nM.

With `N#CCCn1ncc2c(N3CC4CCC(C3)O4)nc(-c3ccc(NC(=O)Nc4ccncc4)cc3)nc21` [Example 217, 1-{4-[1-(2-cyanoethyl)-4-(8-oxa-3-azabicyclo[3.2.1]oct-3-yl)-1H-pyrazolo[3,4-d]pyrimidin-6-yl]phenyl}-3-pyridin-4-ylurea], the IC50 is below 1 nM in assay [1]; 0.17 nM in assay [2]; 1 nM in assay [3]; 348 nM in assay [4]; 112 nM in assay [5].

For the compound `N#CCCn1ncc2c(N3CC4CCC(C3)O4)nc(-c3ccc(NC(=O)Nc4ccc(CO)cc4)cc3)nc21` [Example 218, 1-{4-[1-(2-cyanoethyl)-4-(8-oxa-3-azabicyclo[3.2.1]oct-3-yl)-1H-pyrazolo[3,4-d]pyrimidin-6-yl]phenyl}-3-[4-(hydroxymethyl)phenyl]urea], the half-maximal inhibitory concentration (IC50) is below 1 nM in assay [1]; 0.122 nM in assay [2]; below 1 nM in assay [3]; 2200 nM in assay [4]; 40 nM in assay [5].

For the compound `N#CCCn1ncc2c(N3CC4CCC(C3)O4)nc(-c3ccc(NC(=O)Nc4ccc(CCO)cc4)cc3)nc21` [Example 219, 1-{4-[1-(2-cyanoethyl)-4-(8-oxa-3-azabicyclo[3.2.1]oct-3-yl)-1H-pyrazolo[3,4-d]pyrimidin-6-yl]phenyl}-3-[4-(2-hydroxyethyl)phenyl]urea], the half-inhibitory concentration (IC50) in assay [1] is below 1 nM; in assay [2], 0.082 nM; in assay [3], below 1 nM; in assay [4], 1380 nM; in assay [5], 44 nM.

Turning to `CN1CCN(c2ccc(NC(=O)Nc3ccc(-c4nc(N5CC6CCC(C5)O6)c5cnn(CCC#N)c5n4)cc3)cc2)CC1` [Example 220, 1-{4-[1-(2-cyanoethyl)-4-(8-oxa-3-azabicyclo[3.2.1]oct-3-yl)-1H-pyrazolo[3,4-d]pyrimidin-6-yl]phenyl}-3-[4-(4-methylpiperazin-1-yl)phenyl]urea], the IC50 in assay [1] worked out at 4 nM; in assay [2], 0.48 nM; in assay [3] it was 10 nM; in assay [4], 1680 nM; in assay [5], 74 nM.

As for `N#CCCn1ncc2c(N3CC4CCC(C3)O4)nc(-c3ccc(NC(=O)Nc4ccc(N5CCOCC5)cc4)cc3)nc21` [Example 221, 1-{4-[1-(2-cyanoethyl)-4-(8-oxa-3-azabicyclo[3.2.1]oct-3-yl)-1H-pyrazolo[3,4-d]pyrimidin-6-yl]phenyl}-3-(4-morpholin-4-ylphenyl)urea], the half-maximal inhibitory concentration (IC50) in assay [1] is below 1 nM; in assay [2] it was 0.235 nM; in assay [3], 3 nM; in assay [4], 4790 nM; in assay [5], 444 nM.

Source of the values: patent publication US8129371B2, “Thienopyrimidine and pyrazolopyrimidine compounds and their use as mTOR kinase and PI3 kinase inhibitors” (Wyeth LLC, priority 2007, dated 2012).
